Target: T1, BTK (Canis lupus familiaris, UniProt A0A8I3P3Z9)
T1 construct: PBMCs are isolated from the blood of dogs by Ficoll Paque procedure; from tissue; host or cells: CD21+ B cells purified from PBMCs of dog blood (dogs with spontaneous lymphoma, dosed orally)
Test: BTK target occupancy in canine peripheral CD21+ B cells after oral dosing
Type: in vivo, dog
Settings: day 7 prior to repeat dose, 1 day after preceding dose; 2.5 mg/kg once daily, peroral
Description: The following method may be used for the ELISA BTK target occupancy assay. Other variations of this assay are known to those of skill in the art and may also be used. • 1. Coat a 96-well plate (Optiplate, Perkin Elmer, catalog no. 6005290) with 125 ng/well anti-BTK (BD Biosciences catalog no. 611117) in 100 μL PBS, overnight at 4° C. • 2. Wash 2×200 μL/well PBS-Tween 0.05% (PBST). • 3. Block with 245 μL/well PBST+3% bovine serum albumin (BSA), for 2 to 3 hours at room temperature while shaking. • 4. During blocking, incubate samples with acalabrutinib and probe in Eppendorf tubes: • a. Centrifuge cells 5 minutes at 5000 rpm and 4° C. in Eppendorf centrifuge. • b. Remove supernatant, dilute BTK protein or resuspend cell pellet in cold (2-8° C.) lysis buffer (see below). For amount of cells/μL, see detailed protocols for Ramos (Example 6.2), canine B cells (Example 7.2) and human PBMCs (Example 8.2). • c. Incubate on ice for 30 minutes while shaking. Vortex every 10 minutes. • d. Centrifuge for 10 minutes at 14000 rpm and 4° C. in Eppendorf centrifuge. • e. Transfer supernatant to new tube. • f. […] Wash wells 2×245 μL/well PBST. • 6. Add (in duplicate) 100 μL of each sample (with and without Formula (3)) to the wells. • 7. Incubate for 2 hours at room temperature while shaking. • 8. Wash 4×PBST, 200 μL/well. • 9. […]

T1 sequence (A0A8I3P3Z9 1-664): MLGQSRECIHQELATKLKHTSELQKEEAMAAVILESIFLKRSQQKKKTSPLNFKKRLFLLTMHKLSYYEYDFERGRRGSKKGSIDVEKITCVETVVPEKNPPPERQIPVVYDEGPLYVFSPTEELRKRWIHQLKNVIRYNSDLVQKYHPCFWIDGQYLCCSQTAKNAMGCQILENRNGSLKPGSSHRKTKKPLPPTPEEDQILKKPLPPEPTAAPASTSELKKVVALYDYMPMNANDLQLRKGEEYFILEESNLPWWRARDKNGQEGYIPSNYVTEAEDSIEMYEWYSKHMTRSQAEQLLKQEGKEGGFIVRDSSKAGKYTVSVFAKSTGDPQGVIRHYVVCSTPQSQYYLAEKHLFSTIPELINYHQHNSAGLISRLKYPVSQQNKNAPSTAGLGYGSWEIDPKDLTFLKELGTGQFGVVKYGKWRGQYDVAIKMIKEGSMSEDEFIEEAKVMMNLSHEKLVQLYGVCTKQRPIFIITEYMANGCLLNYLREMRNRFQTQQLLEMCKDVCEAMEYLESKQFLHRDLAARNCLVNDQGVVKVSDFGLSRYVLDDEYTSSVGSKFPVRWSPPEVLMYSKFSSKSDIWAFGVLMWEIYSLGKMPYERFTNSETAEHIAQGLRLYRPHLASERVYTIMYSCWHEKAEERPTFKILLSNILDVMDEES

BTK still occupied, percentage of the predose sample: 83%
SMILES: CC#CC(=O)N1CCC[C@H]1c1nc(-c2ccc(C(=O)Nc3ccccn3)cc2)c2c(N)nccn12 [acalabrutinib]

Source: patent publication US20190376971A1, “Compositions and Methods for the Assessment of Drug Target Occupancy for Bruton's Tyrosine Kinase” (Acerta Pharma B.V., priority 2017, published 2019)
